Experimental data from patent publication US6342508B1, “N-hydroxy-2-(Alkyl,Aryl or Heteroaryl sulfanyl, sulfinyl or sulfonyl) 3-substituted alkyl, aryl or heteroarylamides as matrix metalloproteinase inhibitors” (American Cyanamid Company, priority 1997, dated 2002).
Structures can show the parent of a compound that is named as a salt.

| melting point | SMILES |
| --- | --- |
| 98 °C | COc1ccc(S(=O)(=O)C(C)(Cc2ccc(OCCN(C(C)C)C(C)C)cc2)C(=O)NO)cc1 (stereo not drawn) (as salt: HCl) [Example 20, N-Hydroxy-2-(4-methoxy-benzenesulfonyl)-2-methyl-3-[4-(2-N,N-diisopropylamino-ethoxy)-phenyl]-propionamide] |
| 56 to 59 °C | CCN(CC)CCOc1ccc(CC(C)(C(=O)NO)S(=O)(=O)c2ccc(OC)cc2)cc1 (stereo not drawn) (as salt: HCl) [Example 21, N-Hydroxy-2-(4-methoxy-benzenesulfonyl)-2-methyl-3-[4-(2-N,N-diethylamino-ethoxy)-phenyl]-propionamide] |
| 122 °C | COc1ccc(S(=O)(=O)C(C)(Cc2ccc(OCCCN3CCN(c4cccc(Cl)c4)CC3)cc2)C(=O)NO)cc1 (stereo not drawn) (as salt: HCl) [Example 23, 3-(4-{3-[4-(3-Chloro-phenyl)-piperazin-1-yl]-propoxy}-phenyl)-N-hydroxy-2-(4-methoxy-benzenesulfonyl)-2-methyl-propionamide] |
| 62 °C | COc1ccc(S(=O)(=O)C(CCC(C)C)(Cc2cccnc2)C(=O)NO)cc1 (stereo not drawn) (as salt: HCl) [Example 69, 2-(4-Methoxy-benzenesulfonyl)-5-methyl-2-pyridin-3-ylmethyl-hexanoic acid hydroxyamide] |
| 175 °C | COc1ccc(CN2CCC(C(=O)NO)(S(=O)(=O)c3ccc(OC)cc3)CC2)cc1 (as salt: HCl) [Example 101, 4-(4-methoxy-benzenesulfonyl)-1-(4-methoxy-benzyl)-piperidine-4-carboxylic acid hydroxyamide] |
| 206 °C | COc1ccc(CCN2CCC(C(=O)NO)(S(=O)(=O)c3ccc(OC)cc3)CC2)cc1 (as salt: HCl) [Example 102, 4-(4-methoxy-benzenesulfonyl)-1-[2-(4-methoxyphenyl)-ethyl]-piperidine-4-carboxylic acid hydroxyamide] |
| 205 °C | COc1ccc(S(=O)(=O)C2(C(=O)NO)CCN(CCc3ccccc3)CC2)cc1 (as salt: HCl) [Example 103, 4-(4-methoxy-benzenesulfonyl)-1-(2-phenyl-ethyl)-piperidine-4-carboxylic acid hydroxyamide] |
| 168 to 172 °C | COc1ccc(S(=O)(=O)C2(C(=O)NO)CCN(CCOc3ccccc3)CC2)cc1 (as salt: HCl) [Example 107, 4-(4-methoxy-benzenesulfonyl)-1-(2-phenoxy-ethyl)-piperidine-4-carboxylic acid hydroxyamide] |
| 114 °C | COc1ccc(S(=O)(=O)C2(C(=O)NO)CCN(Cc3ccc(OCCN4CCCCC4)cc3)CC2)cc1 (as salt: HCl) [Example 109, 4-(4-Methoxy-benzenesulfonyl)-1-[4-(2-piperidin-1-yl-ethoxy)-benzyl]-piperidine-4-carboxylic acid hydroxyamide] |
| 57 to 60 °C | COc1ccc(S(=O)(=O)C(Cc2cccnc2)(CC2CCCCC2)C(=O)NO)cc1 (stereo not drawn) (as salt: hydrochloride) [Example 65, 3-Cyclohexyl-N-hydroxy-2-(4-methoxy-benzenesulfonyl)2-pyridin-3-ylmethyl-propionamide] |
| 98 °C | COc1ccc(S(=O)(=O)C(C)(Cc2ccc(OCCN3CCOCC3)cc2)C(=O)NO)cc1 (stereo not drawn) (as salt: hydrochloride) [Example 82, 2-(4-methoxy-benzenesulfonyl)-2-methyl-3-[4-(2-mopholinyl-ethoxy)-phenyl]-propionic hydroxyamide hydrochloride] |
| 65 °C | CCCCCC#CCC(Cc1cccnc1)(C(=O)NO)S(=O)(=O)c1ccc(OC)cc1 (stereo not drawn) (as salt: salt) [Example 74, 2-(4-Methoxy-benzenesulfonyl)-2-pyridin-3-ylmethyl-dec-4-ynoic acid hydroxyamide] |
| 190 °C | CC#CCC(Cc1cccnc1)(C(=O)NO)S(=O)(=O)c1ccc(F)cc1 (stereo not drawn) (as salt: salt) [Example 76, 2-(4-Fluoro-benzenesulfonyl)-2-pyridin-3-ylmethyl-hex-4-ynoic acid hydroxyamide] |
| 180 to 182 °C | CCCCCC#CCC(Cc1cccnc1)(C(=O)NO)S(=O)(=O)c1ccc(F)cc1 (stereo not drawn) (as salt: salt) [Example 77, 2-(4-Fluoro-benzenesulfonyl)-2-pyridin-3-ylmethyl-dec-4-ynoic acid hydroxyamide] |
| 88 °C | COc1ccc(SC(C)(Cc2ccccc2)C(=O)NO)cc1 (stereo not drawn) [Example 1, N-Hydroxy-2-(4-methoxy-phenylsulfanyl)-2-methyl-3-phenyl-propionamide] |
| 155 °C | COc1ccc(SC(C(=O)NO)c2ccccc2)cc1 (stereo not drawn) [Example 2, N-Hydroxy-2-(4-methoxy-phenylsulfanyl)-2-phenyl-acetamide] |
| 89 °C | COc1ccc(SC(C)(CC=C(C)C)C(=O)NO)cc1 (stereo not drawn) [Example 3, 2-(4-Methoxy-phenylsulfanyl)-2,5-dimethyl-hex-4-enoic acid hydroxyamide] |
| 119 °C | COc1ccc(SC(C(=O)NO)C(C)C)cc1 (stereo not drawn) [Example 4, N-Hydroxy-2-(4methoxy-phenylsulfanyl)-3-methyl-butyramide] |
| 108 °C | COc1ccc([S+]([O-])C(C)(CC=C(C)C)C(=O)NO)cc1 (stereo not drawn) [Example 6, 2-(4-Methoxy-benzenesulfinyl)-2,5-dimethyl-hex-4-enoic acid hydroxyamide] |

| melting point | SMILES |
| --- | --- |
| 163 °C | COc1ccc([S+]([O-])C(C(=O)NO)C(C)C)cc1 (stereo not drawn) [Example 7, N-Hydroxy-2-(4-methoxy-benzenesulfinyl)-3-methyl-butyramide] |
| 180 °C | COc1ccc(S(=O)(=O)C(Cc2ccccc2)C(=O)NO)cc1 (stereo not drawn) [Example 9, N-Hydroxy-2-(4-methoxy-benzenesulfonyl)-3-phenyl-propionamide] |
| 130 °C | CCCCC(C(=O)NO)S(=O)(=O)c1ccc(OC)cc1 (stereo not drawn) [Example 10, 2-(4-Methoxy-benzenesulfonyl)-hexanoic acid hydroxyamide] |
| 114 °C | CCCCCCCCCCCCC(C(=O)NO)S(=O)(=O)c1ccc(OC)cc1 (stereo not drawn) [Example 11, 2-(4-Methoxy-benzenesulfonyl)-tetradecanoic hydroxyamide] |
| 58 °C | COc1ccc(S(=O)(=O)C(C)(Cc2ccccc2)C(=O)NO)cc1 (stereo not drawn) [Example 12, N-Hydroxy-2-(4-methoxy-benzenesulfonyl)-2-methyl-3-phenyl-propionamide] |
| 177 °C | COc1ccc(S(=O)(=O)C(C)(Cc2ccc(-c3ccccc3)cc2)C(=O)NO)cc1 (stereo not drawn) [Example 14, 3-(Biphenyl-4-yl)-N-hydroxy-2-(4-methoxy-benzenesulfonyl)-2-methyl-propionamide] |
| 58 °C | COc1ccc(S(=O)(=O)C(C)(CC2CCCCC2)C(=O)NO)cc1 (stereo not drawn) [Example 16, 3-Cyclohexyl-N-hydroxy-2-(4-methoxy-benzenesulfonyl)-2-methyl-propionamide] |
| 68 °C | COc1ccc(S(=O)(=O)C(C)(Cc2ccc(OCCN3CCCCCC3)cc2)C(=O)NO)cc1 (stereo not drawn) [Example 18] |
| 85 °C | CCCC(Cc1ccc(OCCN2CCCCCC2)cc1)(C(=O)NO)S(=O)(=O)c1ccc(OC)cc1 (stereo not drawn) [Example 19, 2-[4-(2-Azepan-1-yl-ethoxy)-benzyl]-2-(4-methoxy-benzenesulfonyl)-pentanoic acid hydroxyamide] |
| 74 °C | COc1ccc(S(=O)(=O)C(C)(Cc2cccc(OCCN3CCCCC3)c2)C(=O)NO)cc1 (stereo not drawn) [Example 22, N-Hydroxy-2-(4-methoxy-benzenesulfonyl)-2-methyl-3-[3-(2-piperidin-1-yl-ethoxy)-phenyl]-propionamide] |
| 67 °C | CCCCC(Cc1ccc(OCCN(CC)CC)cc1)(C(=O)NO)S(=O)(=O)c1ccc(OC)cc1 (stereo not drawn) [Example 27, 2-[4-(2-Diethylamino-ethoxy)-benzyl]-2-(4-methoxy-benzenesulfonyl)-hexanoic acid hydroxyamide] |
| 63 °C | COc1ccc(S(=O)(=O)C(C)(Cc2cccc(OCCN3CCOCC3)c2)C(=O)NO)cc1 (stereo not drawn) [Example 30, N-Hydroxy-2-(4-methoxy-benzenesulfonyl)-2-methyl-3-[3-(2-morpholin-1-yl-ethoxy)-phenyl]-propionamide] |
| 146 to 148 °C | COc1ccc(S(=O)(=O)C(C)(CCCCN2C(=O)c3ccccc3C2=O)C(=O)NO)cc1 (stereo not drawn) [Example 31, 6-(1,3-Dioxo-1,3-dihydro-isoindol-2-yl)-2(4-methoxy-benzenesulfonyl)-2-methyl-hexanoic acid hydroxyamide] |
| 51 °C | CCC(Cc1ccc(OCCN2CCOCC2)cc1)(C(=O)NO)S(=O)(=O)c1ccc(OC)cc1 (stereo not drawn) [Example 33, N-Hydroxy-2-(4-methoxy-benzenesulfonyl)-2-[4-(2-morpholin-4yl-ethoxy)-benzyl]-butyramide] |
| 75 °C | CCC(Cc1ccc(OCCN2CCCCC2)cc1)(C(=O)NO)S(=O)(=O)c1ccc(OC)cc1 (stereo not drawn) [Example 34, N-Hydroxy-2-(4-methoxy-benzenesulfonyl)-2-[4-(2-piperdin-1-yl-ethoxy)-benzyl]-butyramide] |
| 65 °C | CCCCCCC(Cc1ccc(OCCN2CCCCCC2)cc1)(C(=O)NO)S(=O)(=O)c1ccc(OC)cc1 (stereo not drawn) [Example 36, 2-[4-(2-Azepan-1-yl-ethoxy)-benzyl]-2-(4-Methoxy-benzenesulfonyl)-octanoic acid hydroxyamide] |
| 58 °C | CCCCCCC(Sc1ccc(F)cc1)C(=O)NO (stereo not drawn) [Example 38, 2-(4-Fluoro-phenylsulfanyl)-octanoic acid hydroxyamide] |
| 161 to 163 °C | COc1ccc(S(=O)(=O)C(Cc2ccc3ccccc3c2)C(=O)NO)cc1 (stereo not drawn) [Example 40, N-Hydroxy-2-(4-methoxy-benzenesulfonyl)-3-naphthalen-2-yl-propionamide] |

| SMILES | melting point |
| --- | --- |
| CCCCOc1ccc(S(=O)(=O)C2(C(=O)NO)CCN(Cc3ccc(OC)cc3)CC2)cc1 (as salt: HCl) [Example 104, 4-(4-n-Butoxy-benzenesulfonyl)-1-(4-methoxy-benzyl)-piperidine-4-carboxylic acid hydroxyamide] | 173 °C |
| CCCCOc1ccc(S(=O)(=O)C2(C(=O)NO)CCN(CCOc3ccccc3)CC2)cc1 (as salt: HCl) [Example 108, 4-(4-n-Butoxy-benzenesulfonyl)-1-(2-phenoxy-ethyl)-piperidine-4-carboxylic acid hydroxyamide] | 112 °C |
